From US8563580B2, “Flavivirus inhibitors and methods for their use” (Georgetown University, priority 2008, dated 2013)

Each compound was assayed on WNV protease (assay: High Throughput Screen (HTS) protease assay). Details: 100 nl of 5 mg/ml compound in DMSO per 30.1 μl well; substrate Boc-Gly-Lys-Arg-AMC 50 μM; DMSO controls = 100% activity.
Format: biochemical, West Nile virus (EG101 strain)
Protocol: Procedures for expression and purification of WNV (EG101 strain) were similar to those described elsewhere by Mueller et al., Int. J. Biochem. Cell. Biol., 39: 606-14 (2007). Briefly, E. coli Top10 F′ cells (Invitrogen, Carlsbad, Calif.) were transformed with the protease expression plasmid. Cells were grown at 37° C. until the OD600 was ˜0.5. Cells were then induced with isopropyl-1-thio-β-D-galactopyranoside (American Bioanalytical, Natick, Mass.) (0.5 mM), and incubated for 4 h at 37° C. Cells were harvested by centrifugation (5000×g) for 15 min at 4° C., washed once with a buffer containing 50 mM Tris-HCl, pH 7.5, and 200 mM NaCl, centrifuged at 5000×g for 15 min at 4° C., and stored at -80° C. until used.
Proteases were purified by suspending bacterial pellets in 50 mM Hepes, pH 7.0, 500 mM NaCl, (buffer A) with 0.05 mg/ml lysozyme. Cells were incubated for 30 min on ice after addition of 10% stock solution of Triton X-100 (final concentration of 0.5%). Cells were disrupted by sonication for 2 min and the soluble fraction was collected after centrifugation (15,000×g) for 30 min at 4° C. The soluble fraction was incubated for 1 h at 4° C. with Talon resin (BD Bioscience, San Jose, Calif.) which was pre-equilibrated in buffer A. The affinity resin was centrifuged at (400×g) for 10 min at 4° C., washed three times with buffer A, and packed into a column. Washing of the column was continued with the buffer A containing 10 mM imidazole, followed by elution of the protease with buffer A containing 150 mM imidazole. The protease was concentrated and further purified by Sephadex G-75 gel filtration chromatography. The purified protease fractions were pooled and dialyzed against a buffer containing 50 mM Tris-HCl pH 7.5 and 300 mM NaCl (4×1 L). Aliquots (100 μl) were frozen at −80° C.
The protease assay (100 μl) described by Mueller et al., Int. J. Biochem. Cell. Biol. 39: 606-14 (2007) was adapted for a 384-well plate format (30.1 μl). Microtiter plates were loaded sequentially with 14 μl of the reaction buffer containing 200 mM Tris-HCl, pH 9.5, and 30% glycerol (TG buffer) using an automated Wellmate (Matrix, Hudson, N.H.) and 6 μl of WNV protease (0.05 μM) (as prepared above) in TG buffer containing 15 mM NaCl (3 mM final concentration). Plates were then centrifuged at 1000×g for 3 min at room temperature to mix samples and pool liquids at the bottom of the wells. Inhibitor compounds (100 nl of 5 mg/ml in dimethyl sulfoxide; DMSO) were added to each well in duplicate by a pin-transfer mechanism of a robotic delivery system. The final inhibitor concentrations in the assays varied due to different molecular weights of the compounds from the libraries that were screened. Plates were incubated at room temperature to allow for formation of protease/inhibitor complexes. The fluorogenic substrate, t-butyl-oxycarbonyl(Boc)-Gly-Lys-Arg-7-amino-4-methyl coumarin (AMC) (10 μl in TG buffer; 50 μM final concentration in the reaction mixture), was added using the Wellmate, and the plates were centrifuged for 3 min at 1000×g and incubated at room temperature for 15 min. Fluorescence was measured at excitation and emission wavelengths of 385 nm and 465 nm, respectively, on a Perkin-Elmer (Waltham, Mass.) spectrofluorometer. To validate the assay conditions, aprotinin (bovine pancreatic trypsin inhibitor, BPTI) was used as a positive control. Assay mixtures containing DMSO were used as negative controls. The average of fluorescence values in duplicate wells for a given compound was used to determine the percent activity by taking the values obtained with DMSO controls as 100%. Compounds 1-11, 18-32, and 37-101 above were identified. […] Compounds 12-17 are compounds related to those identified in the HTS screen that also show significant WNV protease inhibition, i.e., >95%.
CCOC(=O)c1c(CC(C)C)csc1NC(=O)Cc1ccccc1 [Compound 83] was tested, and the “% Inhibition (reduction in protease activity)” value was 54%. C=CCn1c(Cc2ccccc2)nc2c(cnn2-c2ccccc2)c1=O [Compound 52] was tested, and the “% Inhibition (reduction in protease activity)” value was 52%. For O=C1C(c2ccccc2)c2ccccc2N1Cc1ccccc1 (stereo not drawn) [Compound 43], the “% Inhibition (reduction in protease activity)” value was 54%. CC1=NC(NC(=O)CCN2C(=O)/C(=C/C(C)=C/c3ccccc3)SC2=S)[SH]=C1 (stereo not drawn) [Compound 24] was tested, and the “% Inhibition (reduction in protease activity)” value was 70%. In the case of O=C(NC(c1ccccc1Cl)c1ccc2cccnc2c1O)c1ccccc1 (stereo not drawn) [Compound 2], the “% Inhibition (reduction in protease activity)” value is reported as 85%. O=C(CCc1ccccc1)Nc1nnc(SCc2ccc(F)cc2)s1 [Compound 69] was tested, and the “% Inhibition (reduction in protease activity)” value was 61%. With Cc1ccc(NC(=O)C23C(=O)Oc4ccccc4C2C3(C)C(=O)c2ccccc2)cc1 (stereo not drawn) [Compound 68] the “% Inhibition (reduction in protease activity)” value was 61%. In the case of CC(/C=C1\SC(=S)N(CCC(=O)Nc2ccccc2O)C1=O)=C\c1ccccc1 [Compound 25], the “% Inhibition (reduction in protease activity)” value is reported as 67%. In the case of Cc1cc(NC(=O)CSc2ccccn2)no1 [Compound 88], the “% Inhibition (reduction in protease activity)” value is reported as 54%. With COc1ccc(C(NC(=O)c2ccccc2)c2ccc3cccnc3c2O)cc1 (stereo not drawn) [Compound 1] the “% Inhibition (reduction in protease activity)” value was 86%. Cc1ccc(NC(=O)c2cc(-c3ccc(O)cc3)on2)cc1 [Compound 85] was tested, and the “% Inhibition (reduction in protease activity)” value was 54%. For C=CCOc1cccc(C(Nc2cccc(C)n2)c2ccc3cccnc3c2O)c1 (stereo not drawn) [Compound 5], the “% Inhibition (reduction in protease activity)” value was 81%. For Cc1ccnc(NC(c2ccccc2O)c2ccc3cccnc3c2O)c1 (stereo not drawn) [Compound 12], the “% Inhibition (reduction in protease activity)” value was >95%. With CC(Oc1cc(Cl)ccc1Cl)C(=O)N1CCc2ccccc21 (stereo not drawn) [Compound 38] the “% Inhibition (reduction in protease activity)” value was 58%. For CCOC(=O)c1ccc(NC(=O)Cn2ncc3c4ccccc4n(Cc4ccccc4)c3c2=O)cc1 [Compound 59], the “% Inhibition (reduction in protease activity)” value was 53%. In the case of O=C(CCCN1C(=O)/C(=C/C=C/c2ccccc2)SC1=S)Nc1ccccn1 [Compound 21], the “% Inhibition (reduction in protease activity)” value is reported as 74%. For CC(NC(=O)Cc1cccs1)C(c1cccs1)N1CCN(c2ccccc2)CC1 (stereo not drawn) [Compound 66], the “% Inhibition (reduction in protease activity)” value was 62%. With CC(/C=C1\SC(=S)N(CC(=O)Nc2ccccn2)C1=O)=C\c1ccccc1 [Compound 19] the “% Inhibition (reduction in protease activity)” value was 76.5%. For O=C(Cn1cnc2ccccc2c1=O)Nc1ccc(Oc2ccccc2)cc1 [Compound 60], the “% Inhibition (reduction in protease activity)” value was 51%. For Oc1c(C(Nc2nccs2)c2ccccc2)ccc2cccnc12 (stereo not drawn) [Compound 14], the “% Inhibition (reduction in protease activity)” value was >95%. CC(C)c1ccc(NC(=O)CSC(=O)c2ccccc2)cc1 [Compound 92] was tested, and the “% Inhibition (reduction in protease activity)” value was 52%. For Clc1ccc(CN2COc3c(cc(Cl)c4cccnc34)C2)cc1 [Compound 37], the “% Inhibition (reduction in protease activity)” value was 71%. With COc1cccc(CNC(=O)c2[nH]c(C)c(C(=O)NC3CCCCC3)c2C)c1 [Compound 93] the “% Inhibition (reduction in protease activity)” value was 52%. In the case of O=C(CSc1oc(-c2cccs2)nc1S(=O)(=O)c1ccccc1)NC1CCCCC1 [Compound 95], the “% Inhibition (reduction in protease activity)” value is reported as 52%. For O=C1/C(=C/C2C=CC=[SH]2)SC(=S)N1CC(=O)N(Cc1ccccc1)c1ccccc1 (stereo not drawn) [Compound 26], the “% Inhibition (reduction in protease activity)” value was 67%. With CC1=Nc2ccccc2N=C(NC(=O)CSc2nnnn2-c2ccccc2)C1c1ccccc1 (stereo not drawn) [Compound 79] the “% Inhibition (reduction in protease activity)” value was 56%. With O=C(NCc1csc2ccccc12)c1cc(F)cc2c1OCOC2 [Compound 89] the “% Inhibition (reduction in protease activity)” value was 53%. In the case of COC(=O)c1cc2oc3ccccc3c2n1CC(=O)NCc1ccco1 [Compound 67], the “% Inhibition (reduction in protease activity)” value is reported as 61%. CCc1ccc(-c2cc(C(=O)Nc3ccc(S(=O)(=O)NC(C)=O)cc3)c3ccccc3n2)cc1 [Compound 87] was tested, and the “% Inhibition (reduction in protease activity)” value was 54%. With O=C1NC(=S)S/C1=C\c1ccc(-c2cccc(C(F)(F)F)c2)o1 [Compound 30] the “% Inhibition (reduction in protease activity)” value was 53%. In the case of Cc1cccc(NC(c2ccccc2OCc2ccccc2)c2ccc3cccnc3c2O)n1 (stereo not drawn) [Compound 15], the “% Inhibition (reduction in protease activity)” value is reported as >95%. With Cn1c(=O)n(CCOc2ccc(Cl)cc2)c2ccccc21 [Compound 41] the “% Inhibition (reduction in protease activity)” value was 56%. In the case of O=C(c1cc(Br)cc2c1OCC2)N1CCOCC1 [Compound 75], the “% Inhibition (reduction in protease activity)” value is reported as 57%. Nc1sc2c(c1C(=O)NCCc1ccccc1)CCC2 [Compound 72] was tested, and the “% Inhibition (reduction in protease activity)” value was 59%. O=C(Nc1ccc(F)cc1F)c1ccc2c(c1)C(=O)N(Cc1ccco1)C2=O [Compound 58] was tested, and the “% Inhibition (reduction in protease activity)” value was 55%. In the case of C=CCn1c(SCc2ccc(C(=O)OC)cc2)nc2ccccc2c1=O [Compound 56], the “% Inhibition (reduction in protease activity)” value is reported as 51%. With Cc1cccc(N2C(=O)/C(=C/c3ccc(O)c(O)c3)SC2=S)c1C [Compound 29] the “% Inhibition (reduction in protease activity)” value was 58%. Oc1c(C(Nc2ccccn2)c2ccccc2)ccc2cccnc12 (stereo not drawn) [Compound 8] was tested, and the “% Inhibition (reduction in protease activity)” value was 75%. In the case of CC(/C=C1\SC(=S)N(CCCC(=O)Nc2cccnc2)C1=O)=C\c1ccccc1 [Compound 23], the “% Inhibition (reduction in protease activity)” value is reported as 72%. For CCCCC1CCC(C(=O)Nc2c3c(nn2-c2ccccc2C)C[S+]([O-])C3)CC1 (stereo not drawn) [Compound 96], the “% Inhibition (reduction in protease activity)” value was 51%. For O=C1N=c2ccc(S(=O)(=O)N(CCc3ccccc3)Cc3ccccc3)cc2=NC1=O [Compound 50], the “% Inhibition (reduction in protease activity)” value was 55%. With O=C(CC1Sc2ncnn2C1=O)Nc1ccc(Br)cc1 (stereo not drawn) [Compound 57] the “% Inhibition (reduction in protease activity)” value was 58%. In the case of COC(=O)c1ccc2c(c1)N(Cc1nc(-c3ccccc3C)oc1C)C(=O)C1CCCN21 (stereo not drawn) [Compound 49], the “% Inhibition (reduction in protease activity)” value is reported as 58%. For O=C(Nc1ccc(Cl)cc1)Oc1ccccc1N1CCSCC1 [Compound 82], the “% Inhibition (reduction in protease activity)” value was 55%. O=C(COc1cccc2ccccc12)N1CCc2ccccc2C1 [Compound 47] was tested, and the “% Inhibition (reduction in protease activity)” value was 83%. Cc1ccc(-c2noc(CCC(=O)NCC3CCN(Cc4cccc(C)c4)CC3)n2)cc1 [Compound 98] was tested, and the “% Inhibition (reduction in protease activity)” value was 51%. With Cc1ccc(-c2csc(-n3sc4ccccc4c3=O)n2)cc1 [Compound 45] the “% Inhibition (reduction in protease activity)” value was 52%. With COC(=O)/C=C1\S/C(=N/c2ccc(Cl)cc2)N(c2ccc(Cl)cc2)C1=O [Compound 32] the “% Inhibition (reduction in protease activity)” value was 59%. CCOC(=O)C1C(=O)N(C(=O)c2ccc(OC)cc2)CC1c1ccccc1 (stereo not drawn) [Compound 46] was tested, and the “% Inhibition (reduction in protease activity)” value was 50%. With COc1ccc(Cc2c(O)nc(SC)n(-c3ccccc3)c2=O)cc1 [Compound 55] the “% Inhibition (reduction in protease activity)” value was 51%. With Oc1c(C(Nc2nccs2)c2ccc(F)cc2)ccc2cccnc12 (stereo not drawn) [Compound 9] the “% Inhibition (reduction in protease activity)” value was 74%. CC(C)N1C(=O)/C(=C2/C(=O)N(CC(=O)O)c3ccc(Br)cc32)SC1=S [Compound 31] was tested, and the “% Inhibition (reduction in protease activity)” value was 53%. For Cc1ccc(CNC(=O)Cc2ccc(-n3cccc3)cc2)cc1 [Compound 77], the “% Inhibition (reduction in protease activity)” value was 56%. With CCC(C(=O)Nc1c2c(nn1-c1ccc(F)cc1)CSC2)c1ccccc1 (stereo not drawn) [Compound 76] the “% Inhibition (reduction in protease activity)” value was 57%. For COc1ccc(Cl)cc1NC(=O)c1cc(-c2ccco2)on1 [Compound 70], the “% Inhibition (reduction in protease activity)” value was 60%. Cc1ccc(NC(=O)c2cnn(-c3ccccc3)c2NC(=O)c2ccco2)cc1 [Compound 73] was tested, and the “% Inhibition (reduction in protease activity)” value was 58%. In the case of CCCCC(=O)NC(c1cccs1)c1cc(Cl)c2cccnc2c1O (stereo not drawn) [Compound 7], the “% Inhibition (reduction in protease activity)” value is reported as 76%.
